Assays:
Assay in all cases: radiometric filter-binding kinase assay, Kinase HotSpot
Conditions in all cases: compound 0.5 µM; ATP 10 µM
[1] = molecular target: MINK1 (human) (UniProt Q8N4C8)
[2] = molecular target: TYK2 JH1 catalytic (human) (UniProt P29597)
[3] = molecular target: PRKCB1 (human) (UniProt P05771)
[4] = molecular target: SYK (human) (UniProt P43405)
[5] = molecular target: AXL (human) (UniProt P30530)
[6] = molecular target: RPS6KA2 KD1 KD2 (human) (UniProt Q15349)
[7] = molecular target: MAPKAPK3 (human) (UniProt Q16644)
[8] = molecular target: MAP4K4 (human) (UniProt O95819)
[9] = molecular target: DAPK2 (human) (UniProt Q9UIK4)
[10] = molecular target: EPHB2 (human) (UniProt P29323)
[11] = molecular target: ROS1 (human) (UniProt P08922)
[12] = molecular target: PTK6 (human) (UniProt Q13882)
[13] = molecular target: ZAP70 (human) (UniProt P43403)
[14] = molecular target: CLK1 (human) (UniProt P49759)
[15] = molecular target: FER (human) (UniProt P16591)
[16] = molecular target: TAOK1 (human) (UniProt Q7L7X3)
[17] = molecular target: RPS6KA6 KD1 KD2 (human) (UniProt Q9UK32)
[18] = molecular target: ALK (human) (UniProt Q9UM73)
[19] = molecular target: MAPK13 (human) (UniProt O15264)
[20] = molecular target: MAPK9 (human) (UniProt P45984)
[21] = molecular target: NEK3 (human) (UniProt P51956)
[22] = molecular target: TGFBR1 (human) (UniProt P36897)
[23] = molecular target: CSNK1G2 (human) (UniProt P78368)
[24] = molecular target: HIPK4 (human) (UniProt Q8NE63)
[25] = molecular target: ULK1 (human) (UniProt O75385)
[26] = molecular target: MET (human) (UniProt P08581)
[27] = molecular target: STK11 (human) (UniProt Q15831)
[28] = molecular target: RPS6KA4 KD2 (human) (UniProt O75676)
[29] = molecular target: NTRK2 (human) (UniProt Q16620)
[30] = molecular target: STK16 (human) (UniProt O75716)
[31] = molecular target: PRKCE (human) (UniProt Q02156)
[32] = molecular target: ADRBK2 (human) (UniProt P35626)
[33] = molecular target: LIMK1 (human) (UniProt P53667)
[34] = molecular target: BRSK1 (human) (UniProt Q8TDC3)
[35] = molecular target: DAPK3 (human) (UniProt O43293)
[36] = molecular target: CDK1 CCNB1 (human) (UniProt P06493+P14635)
[37] = molecular target: TTK (human) (UniProt P33981)
[38] = molecular target: WNK2 (human) (UniProt Q9Y3S1)
[39] = molecular target: CAMK2A (human) (UniProt Q9UQM7)
[40] = molecular target: CDK2 CCNA2 (human) (UniProt P24941+P20248)
[41] = molecular target: PDPK1 (human) (UniProt O15530)
[42] = molecular target: FRK (human) (UniProt P42685)
FRK (human), sequence (P42685 whole entry, looked up): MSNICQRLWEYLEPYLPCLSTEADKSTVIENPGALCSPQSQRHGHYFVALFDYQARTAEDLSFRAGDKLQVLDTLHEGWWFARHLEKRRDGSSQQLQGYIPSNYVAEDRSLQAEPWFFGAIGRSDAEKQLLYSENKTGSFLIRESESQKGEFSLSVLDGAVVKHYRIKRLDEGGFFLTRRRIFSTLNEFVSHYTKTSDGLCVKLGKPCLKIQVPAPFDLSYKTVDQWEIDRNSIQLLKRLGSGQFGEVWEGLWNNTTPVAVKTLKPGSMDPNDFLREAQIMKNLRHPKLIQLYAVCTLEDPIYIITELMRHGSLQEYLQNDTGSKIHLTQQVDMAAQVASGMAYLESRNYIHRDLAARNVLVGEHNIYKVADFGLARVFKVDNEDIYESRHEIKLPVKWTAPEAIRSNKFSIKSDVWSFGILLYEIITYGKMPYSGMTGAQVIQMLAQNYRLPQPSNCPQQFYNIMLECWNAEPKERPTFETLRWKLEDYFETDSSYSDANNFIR

ZAP70 (human), sequence (P43403 whole entry, looked up): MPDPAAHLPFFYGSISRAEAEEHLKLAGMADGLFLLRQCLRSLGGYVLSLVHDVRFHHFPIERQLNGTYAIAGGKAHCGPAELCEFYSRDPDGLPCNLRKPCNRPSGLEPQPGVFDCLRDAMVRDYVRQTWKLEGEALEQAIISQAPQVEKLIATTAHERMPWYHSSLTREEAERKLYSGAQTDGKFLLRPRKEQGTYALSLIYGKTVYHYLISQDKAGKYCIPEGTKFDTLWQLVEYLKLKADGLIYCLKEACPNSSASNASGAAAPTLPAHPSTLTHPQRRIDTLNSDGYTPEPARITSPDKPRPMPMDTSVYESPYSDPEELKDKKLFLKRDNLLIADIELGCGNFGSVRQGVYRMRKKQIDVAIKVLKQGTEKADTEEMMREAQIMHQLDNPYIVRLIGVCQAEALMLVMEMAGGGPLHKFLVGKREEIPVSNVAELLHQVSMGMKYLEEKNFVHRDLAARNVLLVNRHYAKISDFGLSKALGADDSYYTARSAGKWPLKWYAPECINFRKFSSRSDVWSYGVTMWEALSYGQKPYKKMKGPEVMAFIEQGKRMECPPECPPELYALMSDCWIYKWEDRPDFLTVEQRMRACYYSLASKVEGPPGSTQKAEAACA
MET (human), sequence (P08581 whole entry, looked up): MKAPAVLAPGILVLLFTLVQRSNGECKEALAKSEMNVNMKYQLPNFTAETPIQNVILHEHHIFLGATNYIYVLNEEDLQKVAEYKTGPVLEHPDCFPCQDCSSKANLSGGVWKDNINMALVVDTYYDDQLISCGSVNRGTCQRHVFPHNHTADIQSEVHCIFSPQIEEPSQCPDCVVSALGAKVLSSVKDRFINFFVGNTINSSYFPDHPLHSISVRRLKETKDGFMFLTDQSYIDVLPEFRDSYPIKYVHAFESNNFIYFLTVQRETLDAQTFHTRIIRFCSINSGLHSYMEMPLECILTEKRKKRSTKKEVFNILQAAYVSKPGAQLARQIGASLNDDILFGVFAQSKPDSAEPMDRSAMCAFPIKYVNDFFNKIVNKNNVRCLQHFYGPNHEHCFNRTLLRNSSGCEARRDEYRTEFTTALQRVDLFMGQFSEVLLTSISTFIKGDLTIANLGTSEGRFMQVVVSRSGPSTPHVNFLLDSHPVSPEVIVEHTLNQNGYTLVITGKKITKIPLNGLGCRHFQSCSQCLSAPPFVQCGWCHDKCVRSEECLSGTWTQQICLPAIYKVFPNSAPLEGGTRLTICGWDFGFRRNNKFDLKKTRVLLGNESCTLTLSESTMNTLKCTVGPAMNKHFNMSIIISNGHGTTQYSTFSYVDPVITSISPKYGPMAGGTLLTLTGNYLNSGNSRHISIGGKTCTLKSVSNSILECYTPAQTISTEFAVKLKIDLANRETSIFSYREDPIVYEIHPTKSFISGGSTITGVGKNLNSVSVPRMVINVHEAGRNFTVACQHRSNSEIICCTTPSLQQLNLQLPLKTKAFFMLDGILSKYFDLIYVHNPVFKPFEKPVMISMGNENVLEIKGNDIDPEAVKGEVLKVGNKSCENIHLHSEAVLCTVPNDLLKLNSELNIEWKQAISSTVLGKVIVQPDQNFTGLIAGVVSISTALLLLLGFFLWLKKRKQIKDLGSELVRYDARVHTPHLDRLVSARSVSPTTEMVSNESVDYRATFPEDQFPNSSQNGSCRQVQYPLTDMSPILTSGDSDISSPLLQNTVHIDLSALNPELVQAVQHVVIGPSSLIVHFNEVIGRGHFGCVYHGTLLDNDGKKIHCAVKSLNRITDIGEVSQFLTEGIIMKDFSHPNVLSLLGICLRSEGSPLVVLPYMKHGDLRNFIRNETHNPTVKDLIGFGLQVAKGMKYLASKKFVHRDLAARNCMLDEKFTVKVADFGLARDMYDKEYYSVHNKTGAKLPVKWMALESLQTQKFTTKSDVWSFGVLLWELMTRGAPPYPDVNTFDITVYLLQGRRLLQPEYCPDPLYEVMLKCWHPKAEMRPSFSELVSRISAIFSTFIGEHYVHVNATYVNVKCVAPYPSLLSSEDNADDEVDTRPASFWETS
PDPK1 (human), sequence (O15530 whole entry, looked up): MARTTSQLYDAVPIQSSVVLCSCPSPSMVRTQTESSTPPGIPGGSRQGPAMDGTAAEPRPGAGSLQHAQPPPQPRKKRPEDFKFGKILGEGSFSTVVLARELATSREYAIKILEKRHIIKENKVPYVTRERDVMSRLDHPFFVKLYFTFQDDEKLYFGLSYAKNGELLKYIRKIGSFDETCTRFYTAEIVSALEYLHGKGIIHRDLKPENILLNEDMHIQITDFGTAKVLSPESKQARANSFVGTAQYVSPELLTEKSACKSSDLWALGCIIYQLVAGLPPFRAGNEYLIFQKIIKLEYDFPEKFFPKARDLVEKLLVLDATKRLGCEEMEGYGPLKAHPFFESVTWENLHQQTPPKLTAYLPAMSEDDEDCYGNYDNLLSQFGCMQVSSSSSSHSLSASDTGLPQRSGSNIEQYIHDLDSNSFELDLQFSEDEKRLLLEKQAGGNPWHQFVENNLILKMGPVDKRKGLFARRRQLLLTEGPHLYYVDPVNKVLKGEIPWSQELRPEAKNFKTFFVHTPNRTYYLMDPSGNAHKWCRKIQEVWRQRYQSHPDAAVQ
MAPK9 (human), sequence (P45984 whole entry, looked up): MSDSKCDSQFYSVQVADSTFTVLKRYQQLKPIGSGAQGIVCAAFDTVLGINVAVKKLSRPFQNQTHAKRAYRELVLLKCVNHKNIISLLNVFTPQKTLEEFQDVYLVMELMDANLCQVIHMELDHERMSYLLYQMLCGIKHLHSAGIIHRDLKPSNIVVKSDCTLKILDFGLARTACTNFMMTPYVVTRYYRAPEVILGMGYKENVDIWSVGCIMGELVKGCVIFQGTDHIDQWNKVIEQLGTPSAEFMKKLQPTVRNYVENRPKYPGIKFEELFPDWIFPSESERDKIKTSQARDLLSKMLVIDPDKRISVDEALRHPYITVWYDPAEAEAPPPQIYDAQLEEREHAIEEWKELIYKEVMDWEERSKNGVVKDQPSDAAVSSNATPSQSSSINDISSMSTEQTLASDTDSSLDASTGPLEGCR
PTK6 (human), sequence (Q13882 whole entry, looked up): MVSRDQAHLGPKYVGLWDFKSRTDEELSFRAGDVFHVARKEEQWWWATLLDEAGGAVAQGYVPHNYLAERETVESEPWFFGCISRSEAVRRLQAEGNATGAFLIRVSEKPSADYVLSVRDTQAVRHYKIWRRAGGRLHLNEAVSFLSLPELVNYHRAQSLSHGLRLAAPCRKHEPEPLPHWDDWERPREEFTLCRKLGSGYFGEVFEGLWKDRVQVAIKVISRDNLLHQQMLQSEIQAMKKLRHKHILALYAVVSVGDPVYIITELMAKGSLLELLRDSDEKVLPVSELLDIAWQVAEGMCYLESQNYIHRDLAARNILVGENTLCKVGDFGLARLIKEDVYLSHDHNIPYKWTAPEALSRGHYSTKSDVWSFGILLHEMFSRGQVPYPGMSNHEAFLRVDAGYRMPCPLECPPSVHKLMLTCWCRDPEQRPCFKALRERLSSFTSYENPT
BRSK1 (human), sequence (Q8TDC3 whole entry, looked up): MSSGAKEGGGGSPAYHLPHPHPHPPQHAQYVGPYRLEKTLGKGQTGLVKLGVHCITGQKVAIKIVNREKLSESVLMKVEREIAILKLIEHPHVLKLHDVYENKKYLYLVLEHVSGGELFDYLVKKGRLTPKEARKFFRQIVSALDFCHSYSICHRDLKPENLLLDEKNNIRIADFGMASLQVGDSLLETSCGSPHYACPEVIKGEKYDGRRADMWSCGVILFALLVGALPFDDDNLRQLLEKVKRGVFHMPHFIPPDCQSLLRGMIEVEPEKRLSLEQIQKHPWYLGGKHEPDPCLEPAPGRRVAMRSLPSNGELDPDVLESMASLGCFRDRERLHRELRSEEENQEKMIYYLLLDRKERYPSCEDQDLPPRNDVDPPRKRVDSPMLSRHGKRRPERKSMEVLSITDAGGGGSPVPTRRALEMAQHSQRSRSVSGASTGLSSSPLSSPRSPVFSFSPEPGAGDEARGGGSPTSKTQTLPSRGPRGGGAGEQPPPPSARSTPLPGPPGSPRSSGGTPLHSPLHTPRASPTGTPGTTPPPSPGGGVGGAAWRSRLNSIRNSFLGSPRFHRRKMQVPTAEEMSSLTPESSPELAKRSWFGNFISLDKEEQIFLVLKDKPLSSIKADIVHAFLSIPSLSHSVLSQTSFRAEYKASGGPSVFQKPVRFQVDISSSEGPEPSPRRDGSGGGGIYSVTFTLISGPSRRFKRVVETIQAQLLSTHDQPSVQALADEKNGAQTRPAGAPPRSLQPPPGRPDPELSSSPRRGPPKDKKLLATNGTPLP
STK16 (human), sequence (O75716 whole entry, looked up): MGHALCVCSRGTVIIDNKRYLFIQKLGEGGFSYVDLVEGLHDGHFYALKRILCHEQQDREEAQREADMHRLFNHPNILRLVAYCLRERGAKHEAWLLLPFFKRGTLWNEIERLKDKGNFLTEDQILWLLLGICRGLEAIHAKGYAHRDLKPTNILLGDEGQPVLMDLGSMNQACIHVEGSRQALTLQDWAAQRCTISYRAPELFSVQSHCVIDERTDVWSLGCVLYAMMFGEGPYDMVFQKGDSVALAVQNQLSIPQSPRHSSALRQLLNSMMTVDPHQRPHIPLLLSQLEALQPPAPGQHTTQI

## O=c1cc(-c2cccc3c2Sc2ccccc2S3)oc(N2CCOCC2)c1
[1]
  residual activity: 100%
[2]
  residual activity: 95.8%
[3]
  residual activity: 103%
[4]
  residual activity: 106%
[5]
  residual activity: 106%
[6]
  residual activity: 81.4%
[7]
  residual activity: 102%
[8]
  residual activity: 93.2%
[9]
  residual activity: 98.8%
[10]
  residual activity: 102%
[11]
  residual activity: 106%
[12]
  residual activity: 90.6%
[13]
  residual activity: 97.1%
[14]
  residual activity: 103%
[15]
  residual activity: 103%
[16]
  residual activity: 107%
[17]
  residual activity: 98.2%
[18]
  residual activity: 96.2%
[19]
  residual activity: 101%
[20]
  residual activity: 97.7%
[21]
  residual activity: 102%
[22]
  residual activity: 98%
[23]
  residual activity: 93.3%
[24]
  residual activity: 100%
[25]
  residual activity: 91.9%
[26]
  residual activity: 107%
[27]
  residual activity: 96.5%
[28]
  residual activity: 88.1%
[29]
  residual activity: 99.1%
[30]
  residual activity: 95.5%
[31]
  residual activity: 109%
[32]
  residual activity: 100%
[33]
  residual activity: 103%
[34]
  residual activity: 98.2%
[35]
  residual activity: 106%
[36]
  residual activity: 88.5%
[37]
  residual activity: 106%
[38]
  residual activity: 116%
[39]
  residual activity: 100%
[40]
  residual activity: 101%
[41]
  residual activity: 104%
[42]
  residual activity: 99.5%

From the kinase profiling compilation of Christmann-Franck et al. (2016)
